Measured values from US20240059698A1 (Accutar Biotechnology Inc., priority 2022, published 2024).

Columns and labels:
Assay type in all cases: cell-based
[1] = test system: HCC827-YVMA cells (human ERBB2 exon20 insertion mutant A775_G776ins YVMA); assay: Cell growth inhibition (CellTiter-Glo), HCC827-YVMA; settings: 72 h, HCC827-YVMA cells, 3 days, CellTiter-Glo, read-out: Cell growth inhibition, GI50 (nM) HCC827-YVMA
How it was run: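 HCC827 cells transduced with lentiviral codon-optimized mutant (ERBB2 A775_G776insYVMA or EGFR V769_D770insASV), endogenous EGFR knocked out by CRISPR, single clone selected. Cells seeded overnight in RPMI/10% FBS, then exposed to serially diluted compounds at 37 °C for 3 days; viability read by CellTiter-Glo luminescence.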

A431 cells = assay: Cell growth inhibition (CellTiter-Glo), A431; settings: Homo sapiens, A-431, 72 h, 3 days
Method: 2. Cell Growth Inhibition for HCC827, HCC827-SVD, HCC827-ASV, HCC827-YVMA, and A431.
HCC827(ATCC), HCC827-SVD, HCC827-ASV, and HCC827-YVMA cells were seeded in 96-well plates at 5000 cells/well in 90 μL of RPMI growth medium containing 10% FBS and 1% Penicillin Streptomycin. A431 (ATCC) cells were seeded in 96-well plates at 5000 cells/well in 90 μL of DMEM growth medium containing 10% FBS and 1% Penicillin Streptomycin. Cells were incubated at 37° C. overnight and then administered with 10 μL 10× test compounds prepared in the growth medium at various concentrations. After administration of the compounds, cells were incubated at 37° C. for 3 days. Before the CellTiter-Glo assay, the plates were equilibrated at room temperature for approximately 30 minutes. 100 ul of CellTiter-Glo reagent (Promega) was added to each well. The plates were then incubated at room temperature for 10 minutes and luminescence was recorded by the EnSight® multimode plate reader (PerkinElmer). Table 7 listed selected compounds in cellular growth assay.

[2] = test system: HCC827-SVD cells (human EGFR exon 20 insertion mutant D770_N771insSVD); assay: Cell growth inhibition (CellTiter-Glo), HCC827-SVD; settings: 72 h, 3 days
How it was run: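 HCC827 cells with endogenous EGFR knocked out and lentivirally expressing the insertion mutant (single clone) were seeded at 5000 cells/well in RPMI with 10% FBS. After overnight, compounds added; 3 days at 37 °C, then CellTiter-Glo luminescence.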

HCC827 cells = assay: Cell growth inhibition (CellTiter-Glo), HCC827; settings: Homo sapiens, 72 h, 3 days
How it was run: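 HCC827 cells in RPMI and A431 cells in DMEM (both 10% FBS) were seeded at 5000 cells/well and left overnight. They were then exposed to compound dilutions for 3 days at 37° C. Viability was read by CellTiter-Glo luminescence.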

Structure (SMILES)	GI50 [1] [nM]	GI50 (A431 cells) [nM]	GI50 [2] [nM]	GI50 (HCC827 cells) [nM]
C=CC(=O)N1CCC(c2c[nH]c3ncnc(Nc4ccc(OCc5cnccn5)c(Cl)c4)c23)CC1 [Compound 116, 1-[4-[4-[3-chloro-4-(pyrazin-2-ylmethoxy)anilino]-7H-pyrrolo[2,3-d]pyrimidin-5-yl]-1-piperidyl]prop-2-en-1-one]	< 50	50 to 200	< 50	< 50
C=CC(=O)N1CC(Nc2n[nH]c3ncnc(Nc4ccc(OCc5ccccn5)c(Cl)c4)c23)C1 [Compound 168, 1-(3-((4-((3-chloro-4-(pyridin-2-ylmethoxy)phenyl)amino)-1H-pyrazolo[3,4-d]pyrimidin-3-yl)amino)azetidin-1-yl)prop-2-en-1-one]	> 1000	> 1000	> 1000	200 to 1000
C=CC(=O)N1CCC(c2ccn3ncnc(Nc4ccc(Oc5nc(-c6cnc(C)c(F)c6)cs5)cc4F)c23)CC1 [Compound 206, 1-[4-[4-[2-fluoro-4-[4-(5-fluoro-6-methyl-3-pyridyl)thiazol-2-yl]oxy-anilino]pyrrolo[2,1-f][1,2,4]triazin-5-yl]-1-piperidyl]prop-2-en-1-one]	50 to 200	> 1000	200 to 1000	> 1000
C=CC(=O)N1CCC(c2n[nH]c3ncnc(Nc4ccc(Oc5ccnc(N6CC7(CCOCC7)C6)c5)cc4F)c23)CC1 [Compound 181, 1-(4-(4-((4-((2-(7-oxa-2-azaspiro[3.5]nonan-2-yl)pyridin-4-yl)oxy)-2-fluorophenyl)amino)-1H-pyrazolo[3,4-d]pyrimidin-3-yl)piperidin-1-yl)prop-2-en-1-one]	50 to 200	> 1000	50 to 200	> 1000
C=CC(=O)N1CCC(c2ccn3ncnc(Nc4ccc(Oc5ccnc(N6CC(C)(OC)C6)c5)cc4F)c23)CC1 [Compound 203, 1-(4-(4-((2-fluoro-4-((2-(3-methoxy-3-methylazetidin-1-yl)pyridin-4-yl)oxy)phenyl)amino)pyrrolo[2,1-f][1,2,4]triazin-5-yl)piperidin-1-yl)prop-2-en-1-one]	50 to 200	> 1000	200 to 1000	> 1000
C=CC(=O)N1CCC(c2c[nH]c3ncnc(Nc4ccc(Oc5ccn(-c6cnc(C)c(F)c6)n5)cc4F)c23)CC1 [Compound 150, 1-(4-(4-((2-fluoro-4-((1-(5-fluoro-6-methylpyridin-3-yl)-1H-pyrazol-3-yl)oxy)phenyl)amino)-7H-pyrrolo[2,3-d]pyrimidin-5-yl)piperidin-1-yl)prop-2-en-1-one]	50 to 200	> 1000	50 to 200	200 to 1000
C=CC(=O)N1CCC(c2c[nH]c3ncnc(Nc4ccc(OCc5cscn5)c(Cl)c4)c23)CC1 [Compound 119, 1-[4-[4-[3-chloro-4-(thiazol-4-ylmethoxy)anilino]-7H-pyrrolo[2,3-d]pyrimidin-5-yl]-1-piperidyl]prop-2-en-1-one]	< 50	50 to 200	< 50	< 50
C=CC(=O)N1CCC(c2n[nH]c3ncnc(Nc4ccc(O[C@H]5CCCN(S(=O)(=O)c6cccs6)C5)cc4F)c23)CC1 [Compound 186, (S)-1-(4-(4-((2-fluoro-4-((1-(thiophen-2-ylsulfonyl)piperidin-3-yl)oxy)phenyl)amino)-1H-pyrazolo[3,4-d]pyrimidin-3-yl)piperidin-1-yl)prop-2-en-1-one]	50 to 200	> 1000	200 to 1000	200 to 1000
C=CC(=O)N1CCC(Nc2n[nH]c3ncnc(Nc4ccc(OCc5ccccn5)c(Cl)c4)c23)CC1 [Compound 169, 1-(4-((4-((3-chloro-4-(pyridin-2-ylmethoxy)phenyl)amino)-1H-pyrazolo[3,4-d]pyrimidin-3-yl)amino)piperidin-1-yl)prop-2-en-1-one]	> 1000	> 1000	> 1000	> 1000
C=CC(=O)N1CCC(c2c[nH]c3ncnc(Nc4ccc(OCc5cc(C)ccn5)c(Cl)c4)c23)CC1 [Compound 110, 1-(4-(4-((3-chloro-4-((4-methylpyridin-2-yl)methoxy)phenyl)amino)-7H-pyrrolo[2,3-d]pyrimidin-5-yl)piperidin-1-yl)prop-2-en-1-one]	< 50	200 to 1000	< 50	< 50
C=CC(=O)N1CCC(c2n[nH]c3ncnc(Nc4ccc(O[C@H]5CCCN(S(=O)(=O)c6ccccc6)C5)cc4F)c23)CC1 [Compound 165, (S)-1-(4-(4-((2-fluoro-4-((1-(phenylsulfonyl)piperidin-3-yl)oxy)phenyl)amino)-1H-pyrazolo[3,4-d]pyrimidin-3-yl)piperidin-1-yl)prop-2-en-1-one]	50 to 200	> 1000	50 to 200	200 to 1000
C=CC(=O)N1CCC(c2c[nH]c3ncnc(Nc4ccc(Oc5ccc(-c6cc(C)[nH]c(=O)c6)cc5)c(Cl)c4F)c23)CC1 [Compound 138, 4-(4-(4-((5-(1-acryloylpiperidin-4-yl)-7H-pyrrolo[2,3-d]pyrimidin-4-yl)amino)-2-chloro-3-fluorophenoxy)phenyl)-6-methylpyridin-2(1H)-one]	200 to 1000	> 1000	50 to 200	> 1000
C=CC(=O)N1CCN(c2n[nH]c3ncnc(Nc4ccc(OCc5ccccn5)c(Cl)c4)c23)CC1 [Compound 163, 1-(4-(4-((3-chloro-4-(pyridin-2-ylmethoxy)phenyl)amino)-1H-pyrazolo[3,4-d]pyrimidin-3-yl)piperazin-1-yl)prop-2-en-1-one]	< 50	> 1000	< 50	< 50

Continued, values first:

GI50 [1] [nM]	GI50 (A431 cells) [nM]	GI50 [2] [nM]	GI50 (HCC827 cells) [nM]	Structure (SMILES)
200 to 1000	> 1000	200 to 1000	> 1000	C=CC(=O)N1CCC(c2n[nH]c3ncnc(Nc4ccc(Oc5ccnc(NC6CCOCC6)c5)cc4F)c23)CC1 [Compound 174, 1-(4-(4-((2-fluoro-4-((2-((tetrahydro-2H-pyran-4-yl)amino)pyridin-4-yl)oxy)phenyl)amino)-1H-pyrazolo[3,4-d]pyrimidin-3-yl)piperidin-1-yl)prop-2-en-1-one]
50 to 200	> 1000	< 50	< 50	C=CC(=O)N1CCC(c2n[nH]c3ncnc(Nc4ccc(OCc5nnsc5Cl)cc4F)c23)CC1 [Compound 195, 1-(4-(4-((4-((5-chloro-1,2,3-thiadiazol-4-yl)methoxy)-2-fluorophenyl)amino)-1H-pyrazolo[3,4-d]pyrimidin-3-yl)piperidin-1-yl)prop-2-en-1-one]
50 to 200	> 1000	50 to 200	> 1000	C=CC(=O)N1CCC(c2n[nH]c3ncnc(Nc4ccc(Oc5ccnc(NC(=O)C(C)C)c5)cc4F)c23)CC1 [Compound 182, N-(4-(4-((3-(1-acryloylpiperidin-4-yl)-1H-pyrazolo[3,4-d]pyrimidin-4-yl)amino)-3-fluorophenoxy)pyridin-2-yl)isobutyramide]
200 to 1000	> 1000	200 to 1000	200 to 1000	C=CC(=O)N1CCC(c2n[nH]c3ncnc(Nc4ccc(Oc5nc(-c6ccnn6C)cs5)cc4F)c23)CC1 [Compound 191, 1-(4-(4-((2-fluoro-4-((4-(1-methyl-1H-pyrazol-5-yl)thiazol-2-yl)oxy)phenyl)amino)-1H-pyrazolo[3,4-d]pyrimidin-3-yl)piperidin-1-yl)prop-2-en-1-one]
50 to 200	> 1000	50 to 200	200 to 1000	C=CC(=O)N1CCC(c2n[nH]c3ncnc(Nc4ccc(Oc5nc(-c6ccc(C(F)(F)F)nc6)cs5)cc4F)c23)CC1 [Compound 188, 1-(4-(4-((2-fluoro-4-((4-(6-(trifluoromethyl)pyridin-3-yl)thiazol-2-yl)oxy)phenyl)amino)-1H-pyrazolo[3,4-d]pyrimidin-3-yl)piperidin-1-yl)prop-2-en-1-one]
200 to 1000	> 1000	> 1000	> 1000	C=CC(=O)N1CCC(c2n[nH]c3ncnc(Nc4ccc(Oc5ccnc(C(=O)NC)c5)cc4F)c23)CC1 [Compound 184, 4-(4-((3-(1-acryloylpiperidin-4-yl)-1H-pyrazolo[3,4-d]pyrimidin-4-yl)amino)-3-fluorophenoxy)-N-methylpicolinamide]
